From patent US10004701B2, “Methods and compositions for treating infection” (UNIVERSITY OF ROCHESTER, priority 2012, dated 2018)
Structures can show the parent of a compound that is named as a salt. Where two headings read alike, the source gives them in different places.

Assays:
Assay in all cases: AK assay 384-well format, Prestwick library screening
[1] = tested on: K. pneumoniae; assay type: cell-based, Klebsiella pneumoniae; details: for fold induction at 50 µM: Klebsiella pneumoniae, 3 h
[2] = tested on: P. aeruginosa; assay type: cell-based, Pseudomonas aeruginosa; details: for fold induction at 50 µM: Pseudomonas aeruginosa, 3 h
[3] = tested on: E. coli; assay type: cell-based, Escherichia coli; details: for fold induction at 50 µM: Escherichia coli, 3 h
[4] = tested on: E. faecium; assay type: cell-based, Enterococcus faecium; details: for fold induction at 50 µM: Enterococcus faecium, 3 h
[5] = tested on: S. aureus strain USA300-0114; assay type: cell-based, Staphylococcus aureus; details: for fold induction at 50 µM: Staphylococcus aureus, USA300, 3 h
[6] = tested on: A. baumannii strain 98-37-09; assay type: cell-based, Acinetobacter baumannii; details: for fold induction at 50 µM: Acinetobacter baumannii, 983709, 3 h
[7] = tested on: E. cloacae; assay type: cell-based, Enterobacter cloacae; details: for fold induction at 50 µM: Enterobacter cloacae, 3 h
[8] = 50 μM final drug concentration, cutoff for positive-scoring molecules 3-fold increase, read-out: AK-based Prestwick Library Screening Results, K. pneumoniae (fold increase in extracellular AK activity)
[9] = 50 μM final drug concentration, cutoff for positive-scoring molecules 3-fold increase, read-out: AK-based Prestwick Library Screening Results, P. aeruginosa (fold increase in extracellular AK activity)
[10] = 50 μM final drug concentration, cutoff for positive-scoring molecules 3-fold increase, read-out: AK-based Prestwick Library Screening Results, E. coli (fold increase in extracellular AK activity)
[11] = 50 μM final drug concentration, cutoff for positive-scoring molecules 3-fold increase, read-out: AK-based Prestwick Library Screening Results, E. faecium (fold increase in extracellular AK activity)
[12] = 50 μM final drug concentration, cutoff for positive-scoring molecules 3-fold increase, read-out: AK-based Prestwick Library Screening Results, S. aureus (fold increase in extracellular AK activity)
[13] = 50 μM final drug concentration, cutoff for positive-scoring molecules 3-fold increase, read-out: AK-based Prestwick Library Screening Results, A. baumannii (fold increase in extracellular AK activity)
[14] = 50 μM final drug concentration, cutoff for positive-scoring molecules 3-fold increase, read-out: AK-based Prestwick Library Screening Results, E. cloacae (fold increase in extracellular AK activity)
[15] = 50 μM final drug concentration, planktonic, cutoff for positive-scoring molecules 3-fold increase, read-out: AK-based Prestwick Library Screening Results, K. pneumoniae (fold increase in extracellular AK activity)
[16] = 50 μM final drug concentration, planktonic, cutoff for positive-scoring molecules 3-fold increase, read-out: AK-based Prestwick Library Screening Results, P. aeruginosa (fold increase in extracellular AK activity)
[17] = 50 μM final drug concentration, planktonic, cutoff for positive-scoring molecules 3-fold increase, read-out: AK-based Prestwick Library Screening Results, E. coli (fold increase in extracellular AK activity)
[18] = 50 μM final drug concentration, planktonic, cutoff for positive-scoring molecules 3-fold increase, read-out: AK-based Prestwick Library Screening Results, E. faecium (fold increase in extracellular AK activity)
[19] = 50 μM final drug concentration, planktonic, cutoff for positive-scoring molecules 3-fold increase, read-out: AK-based Prestwick Library Screening Results, S. aureus (fold increase in extracellular AK activity)
[20] = 50 μM final drug concentration, planktonic, cutoff for positive-scoring molecules 3-fold increase, read-out: AK-based Prestwick Library Screening Results, A. baumannii (fold increase in extracellular AK activity)
[21] = 50 μM final drug concentration, planktonic, cutoff for positive-scoring molecules 3-fold increase, read-out: AK-based Prestwick Library Screening Results, E. cloacae (fold increase in extracellular AK activity)
[22] = 50 μM final drug concentration, […]
[23] = 50 μM final drug concentration, planktonic, cutoff for positive 3-fold increase, read-out: AK-based Prestwick Library Screening Results, K. pneumoniae (fold increase in extracellular AK activity)
[24] = 50 μM final drug concentration, planktonic, cutoff for positive 3-fold increase, read-out: AK-based Prestwick Library Screening Results, P. aeruginosa (fold increase in extracellular AK activity)
[25] = 50 μM final drug concentration, planktonic, cutoff for positive 3-fold increase, read-out: AK-based Prestwick Library Screening Results, E. coli (fold increase in extracellular AK activity)
[26] = 50 μM final drug concentration, planktonic, cutoff for positive 3-fold increase, read-out: AK-based Prestwick Library Screening Results, E. faecium (fold increase in extracellular AK activity)
[27] = 50 μM final drug concentration, planktonic, cutoff for positive 3-fold increase, read-out: AK-based Prestwick Library Screening Results, S. aureus (fold increase in extracellular AK activity)
[28] = 50 μM final drug concentration, planktonic, cutoff for positive 3-fold increase, read-out: AK-based Prestwick Library Screening Results, A. baumannii (fold increase in extracellular AK activity)
[29] = 50 μM final drug concentration, planktonic, cutoff for positive 3-fold increase, read-out: AK-based Prestwick Library Screening Results, E. cloacae (fold increase in extracellular AK activity)

## C[C@@H]1CC[C@H]2[C@@H](C)C(=O)O[C@@H]3O[C@@]4(C)CC[C@@H]1[C@]32OO4 [Artemisinin]
[1]; planktonic K. pneumoniae, 50 μM final drug concentration, cutoff for positive-scoring molecules 3-fold increase, read-out: AK-based Prestwick Library Screening Results, K. pneumoniae (increase in extracellular AK activity)
  fold induction at 50 µM: 0.6
[2]; planktonic P. aeruginosa, 50 μM final drug concentration, cutoff for positive-scoring molecules 3-fold increase, read-out: AK-based Prestwick Library Screening Results, P. aeruginosa (increase in extracellular AK activity)
  fold induction at 50 µM: 0.6
[3]; planktonic E. coli, 50 μM final drug concentration, cutoff for positive-scoring molecules 3-fold increase, read-out: AK-based Prestwick Library Screening Results, E. coli (increase in extracellular AK activity)
  fold induction at 50 µM: 0.5
[4]; planktonic E. faecium, 50 μM final drug concentration, cutoff for positive-scoring molecules 3-fold increase, read-out: AK-based Prestwick Library Screening Results, E. faecium (increase in extracellular AK activity)
  fold induction at 50 µM: 0.9
[5]; planktonic S. aureus, 50 μM final drug concentration, cutoff for positive-scoring molecules 3-fold increase, read-out: AK-based Prestwick Library Screening Results, S. aureus (increase in extracellular AK activity)
  fold induction at 50 µM: 0.5
[6]; planktonic A. baumannii, 50 μM final drug concentration, cutoff for positive-scoring molecules 3-fold increase, read-out: AK-based Prestwick Library Screening Results, A. baumannii (increase in extracellular AK activity)
  fold induction at 50 µM: 0.7
[7]; planktonic E. cloacae, 50 μM final drug concentration, cutoff for positive-scoring molecules 3-fold increase, read-out: AK-based Prestwick Library Screening Results, E. cloacae (increase in extracellular AK activity)
  fold induction at 50 µM: 0.7

## CC(=O)O[C@H]1C[C@@H]2CC[C@@H]3[C@H](CC[C@@]4(C)[C@H]3C[C@H]([N+]3(C)CCCCC3)[C@@H]4OC(C)=O)[C@@]2(C)C[C@@H]1[N+]1(C)CCCCC1 [Pancuronium bromide]
[1]; planktonic K. pneumoniae, 50 μM final drug concentration, positive cutoff 3-fold increase, read-out: AK-based Prestwick library screening result, K. pneumoniae (fold increase in extracellular AK activity)
  fold induction at 50 µM: 1
[2]; planktonic P. aeruginosa, 50 μM final drug concentration, positive cutoff 3-fold increase, read-out: AK-based Prestwick library screening result, P. aeruginosa (fold increase in extracellular AK activity)
  fold induction at 50 µM: 0.9
[3]; planktonic E. coli, 50 μM final drug concentration, […], read-out: AK-based Prestwick library screening result, E. coli (fold increase in extracellular AK activity)
  fold induction at 50 µM: 1.1
[4]; planktonic E. faecium, 50 μM final drug concentration, positive cutoff 3-fold increase, read-out: AK-based Prestwick library screening result, E. faecium (fold increase in extracellular AK activity)
  fold induction at 50 µM: 1
[5]; planktonic S. aureus, 50 μM final drug concentration, positive cutoff 3-fold increase, read-out: AK-based Prestwick library screening result, S. aureus (fold increase in extracellular AK activity)
  fold induction at 50 µM: 1.1
[6]; planktonic A. baumannii, 50 μM final drug concentration, positive cutoff 3-fold increase, read-out: AK-based Prestwick library screening result, A. baumannii (fold increase in extracellular AK activity)
  fold induction at 50 µM: 1.1
[7]; planktonic E. cloacae, 50 μM final drug concentration, positive cutoff 3-fold increase, read-out: AK-based Prestwick library screening result, E. cloacae (fold increase in extracellular AK activity)
  fold induction at 50 µM: 1.6

## Cc1ccc(C(=O)c2ccc(CC(=O)O)n2C)cc1 [Tolmetin sodium salt dihydrate]
[1]; [8]
  fold induction at 50 µM: 0.6
[2]; [9]
  fold induction at 50 µM: 1
[3]; [10]
  fold induction at 50 µM: 0.9
[4]; [11]
  fold induction at 50 µM: 0.8
[5]; [12]
  fold induction at 50 µM: 0.9
[6]; [13]
  fold induction at 50 µM: 0.8
[7]; [14]
  fold induction at 50 µM: 2

## CCCCN(CCCC)CCCOC(=O)c1ccc(N)cc1 [Butacaine]
[1]; [15]
  fold induction at 50 µM: 0.8
[2]; [16]
  fold induction at 50 µM: 1
[3]; [17]
  fold induction at 50 µM: 0.9
[4]; [18]
  fold induction at 50 µM: 0.9
[5]; [19]
  fold induction at 50 µM: 0.8
[6]; [20]
  fold induction at 50 µM: 0.9
[7]; [21]
  fold induction at 50 µM: 1.4

## Pridinol methanesulfonate salt
[1]; [22]
  AK-based Prestwick Library Screening Results, K. pneumoniae (fold increase in extracellular AK activity): 0.9
[2]; [22]
  AK-based Prestwick Library Screening Results, P. aeruginosa (fold increase in extracellular AK activity): 1.1
[3]; [22]
  AK-based Prestwick Library Screening Results, E. coli (fold increase in extracellular AK activity): 1.1
[4]; [22]
  AK-based Prestwick Library Screening Results, E. faecium (fold increase in extracellular AK activity): 1.1
[5]; [22]
  AK-based Prestwick Library Screening Results, S. aureus (fold increase in extracellular AK activity): 1.2
[6]; [22]
  AK-based Prestwick Library Screening Results, A. baumannii (fold increase in extracellular AK activity): 1.1
[7]; [22]
  AK-based Prestwick Library Screening Results, E. cloacae (fold increase in extracellular AK activity): 1.6

## CC(C)c1cccc(C(C)C)c1O [Propofol]
[1]; read-out: AK-based Prestwick Library Screening Results, K. pneumoniae (fold increase in extracellular AK activity)
  fold induction at 50 µM: 1.1
[2]; read-out: AK-based Prestwick Library Screening Results, P. aeruginosa (fold increase in extracellular AK activity)
  fold induction at 50 µM: 1
[3]; read-out: AK-based Prestwick Library Screening Results, E. coli (fold increase in extracellular AK activity)
  fold induction at 50 µM: 1.3
[4]; read-out: AK-based Prestwick Library Screening Results, E. faecium (fold increase in extracellular AK activity)
  fold induction at 50 µM: 1
[5]; read-out: AK-based Prestwick Library Screening Results, S. aureus (fold increase in extracellular AK activity)
  fold induction at 50 µM: 1.2
[6]; read-out: AK-based Prestwick Library Screening Results, A. baumannii (fold increase in extracellular AK activity)
  fold induction at 50 µM: 1
[7]; read-out: AK-based Prestwick Library Screening Results, E. cloacae (fold increase in extracellular AK activity)
  fold induction at 50 µM: 1.7

## Cc1nnc(SCC2=C(C(=O)O)N3C(=O)[C@@H](NC(=O)Cn4cnnn4)[C@H]3SC2)s1 [Cefazolin sodium salt]
[1]; [15]
  fold induction at 50 µM: 3.6
[2]; [16]
  fold induction at 50 µM: 0.7
[3]; [17]
  fold induction at 50 µM: 16.5
[4]; [18]
  fold induction at 50 µM: 0.9
[5]; [19]
  fold induction at 50 µM: 3.1
[6]; [20]
  fold induction at 50 µM: 0.5
[7]; [21]
  fold induction at 50 µM: 0.9

## CN1CCN(CCCN2c3ccccc3Sc3ccc(Cl)cc32)CC1 [Prochlorperazine dimaleate]
[1]; [23]
  fold induction at 50 µM: 1.2
[2]; [24]
  fold induction at 50 µM: 1.2
[3]; [25]
  fold induction at 50 µM: 1.2
[4]; [26]
  fold induction at 50 µM: 1.1
[5]; [27]
  fold induction at 50 µM: 1.1
[6]; [28]
  fold induction at 50 µM: 1.6
[7]; [29]
  fold induction at 50 µM: 2

## C[C@H](CCC(=O)O)[C@H]1CC[C@H]2[C@@H]3CC[C@@H]4C[C@H](O)CC[C@]4(C)[C@H]3CC[C@]12C [Lithocholic acid]
[1]; [8]
  fold induction at 50 µM: 0.8
[2]; [9]
  fold induction at 50 µM: 1
[3]; [10]
  fold induction at 50 µM: 0.8
[4]; [11]
  fold induction at 50 µM: 1.2
[5]; [12]
  fold induction at 50 µM: 1.1
[6]; [13]
  fold induction at 50 µM: 1
[7]; [14]
  fold induction at 50 µM: 1.7

## CCOC(=O)O[C@]1(C(=O)COC(=O)CC)CC[C@H]2[C@@H]3CCC4=CC(=O)C=C[C@]4(C)[C@H]3[C@@H](O)C[C@@]21C [Prednicarbate]
[1]; [8]
  fold induction at 50 µM: 0.5
[2]; [9]
  fold induction at 50 µM: 0.4
[3]; [10]
  fold induction at 50 µM: 0.4
[4]; [11]
  fold induction at 50 µM: 0.9
[5]; [12]
  fold induction at 50 µM: 0.4
[6]; [13]
  fold induction at 50 µM: 0.4
[7]; [14]
  fold induction at 50 µM: 0.3

## Cc1cc(N)c2ccccc2[n+]1CCCCCCCCCC[n+]1c(C)cc(N)c2ccccc21 [Dequalinium dichloride]
[1]; [23]
  fold induction at 50 µM: 1.6
[2]; [24]
  fold induction at 50 µM: 2.3
[3]; [25]
  fold induction at 50 µM: 3
[4]; [26]
  fold induction at 50 µM: 1.1
[5]; [27]
  fold induction at 50 µM: 1.2
[6]; [28]
  fold induction at 50 µM: 3.2
[7]; [29]
  fold induction at 50 µM: 1.8
